Source: patent EP4431512A1, “NOVEL DUAL NK-1/NK-3 RECEPTOR ANTAGONISTS” (Bayer Consumer Care AG, priority 2023, dated 2024)

What was measured:
Human NK3 receptor [1] = target: T1, Human NK3 receptor (Homo sapiens, UniProt P29371); experiment: NK3 receptor functional assay (antagonist effect, intracellular Ca2+, fluorimetry); assay type: cell-based; parameters: expressed in transfected cells; host or cells: CHO cells; conditions: result in words; human NK3 receptors
T1 sequence (P29371 1-465): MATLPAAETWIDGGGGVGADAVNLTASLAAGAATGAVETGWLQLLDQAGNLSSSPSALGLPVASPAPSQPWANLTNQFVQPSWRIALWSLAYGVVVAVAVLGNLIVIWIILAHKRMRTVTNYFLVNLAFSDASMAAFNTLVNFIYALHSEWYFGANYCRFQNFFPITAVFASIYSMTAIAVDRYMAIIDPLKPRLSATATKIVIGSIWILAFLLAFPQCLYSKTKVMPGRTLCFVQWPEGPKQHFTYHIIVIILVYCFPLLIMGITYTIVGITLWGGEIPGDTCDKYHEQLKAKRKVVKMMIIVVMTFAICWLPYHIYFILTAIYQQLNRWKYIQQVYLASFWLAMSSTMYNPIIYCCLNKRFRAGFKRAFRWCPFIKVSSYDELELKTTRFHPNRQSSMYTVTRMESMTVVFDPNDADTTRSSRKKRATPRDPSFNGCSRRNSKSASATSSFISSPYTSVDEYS
Experimental: (§1) Cellular antagonist effect was calculated as a %-inhibition of reference agonist response for each target.
Human NK3 receptor antagonistic activity was determined by measuring antagonistic effects of the compounds of the formula on the reduction of agonist induced intracellular [Ca^2+] concentrations in CHO cells recombinantly expressing […] using an fluorimetric detection method. The assay was adapted from Medhurst, A.D. et al. (1999), Brit. J. Pharmacol., 128: 627-636. As an agonist to induce intracellular [Ca^2+] [MePhe^7]-NKB was used as outlined in the overview table below.
(§2) For the antagonists, the apparent dissociation constants (KB ) were calculated using the modified Cheng Prusoff equation KB = (IC50)/(1 + (A/EC50A)) [formula] where A = concentration of reference agonist in the assay, and EC50A = EC50 value of the reference agonist.

Human NK3 receptor [2] = target: T1, Human NK3 receptor; experiment: NK3 receptor binding assay (antagonist radioligand, scintillation counting); parameters: expressed in transfected cells; host or cells: CHO cells (membrane preparations); conditions: for binding affinities: result in words, human NK3 receptors; for nH: NK3(h) (antagonist radioligand), Hill coefficient of competition curve
Experimental: Compound binding was calculated as a %-inhibition of the binding of a radioactively labeled ligand specific for each target.
NK3 receptor binding affinities of the compounds of the invention were determined by an scintillation counting and using membrane preparations of CHO cells recombinantly expressing human NK3 receptors (as described by Sarau, H.M. et al. (1997), J. Pharmacol. Exp. Ther., 281: 1303-1311).
The results are expressed as a percent of control specific binding (measured specific binding)/(control specific binding)*100 [formula] and as a percent inhibition of control specific binding 100−((measured specific binding)/(control specific binding)*100) [formula] obtained in the presence of the test compounds.
The IC50 values (concentration causing a half-maximal inhibition of control specific binding) and Hill coefficients (nH) were determined by non-linear regression analysis of the competition curves generated with mean replicate values using Hill equation curve fitting Y = D + [(A−D)/(1 + ((C/C50))^nH)] [formula] where Y = specific binding, A = left asymptote of the curve, D = right asymptote of the curve, C = compound concentration, C50 =IC50, and nH = slope factor. This analysis was performed using software developed at Cerep (Hill software) and validated by comparison with data generated by the commercial software SigmaPlot® 4.0 for Windows® (^© 1997 by SPSS Inc.).
The inhibition constants (Ki) were calculated using the Cheng Prusoff equation Ki = (IC50)/((1+L/KD)) [formula] where L = concentration of radioligand in the assay, and KD = affinity of the radioligand for the receptor. A scatchard plot is used todetermine the KD.

NK1 receptors [3] = target: T2, NK1 receptors (Homo sapiens, UniProt P25103); experiment: NK1 receptor functional assay (antagonist effect, intracellular Ca2+, fluorimetry); assay type: cell-based; parameters: Human astrocytoma U373MG cells do endogenously express NK1 receptors; endogenous in cells; host or cells: U373MG human astrocytoma cells; conditions: result in words
T2 sequence (P25103 whole entry): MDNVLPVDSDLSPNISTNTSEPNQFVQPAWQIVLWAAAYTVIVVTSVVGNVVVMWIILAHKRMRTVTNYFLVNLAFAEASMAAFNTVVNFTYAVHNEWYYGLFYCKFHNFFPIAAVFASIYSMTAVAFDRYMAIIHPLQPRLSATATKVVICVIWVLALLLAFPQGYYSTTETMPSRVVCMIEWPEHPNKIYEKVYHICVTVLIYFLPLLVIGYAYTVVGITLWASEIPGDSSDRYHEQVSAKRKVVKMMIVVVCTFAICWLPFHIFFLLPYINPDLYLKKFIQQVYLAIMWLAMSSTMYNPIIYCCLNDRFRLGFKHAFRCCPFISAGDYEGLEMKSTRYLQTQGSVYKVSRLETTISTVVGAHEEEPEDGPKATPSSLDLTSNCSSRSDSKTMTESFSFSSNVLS
Experimental: as §1
Human NK1 receptor antagonistic activity assays were performed by measuring antagonistic effects of the compounds of the formula on the reduction agonist induced intracellular [Ca^2+] calcium concentrations in the human astrocytoma cell line U373MG using fluorimetric detection. Human astrocytoma U373MG cells do endogenously express NK1 receptors and were used in the assay according to Eistetter, H.R. et al. (1992), Glia, 6: 89-95 and [Sar^9,Met(O2)^11]-Substance P was used as agonistic stimulus of the NK1 receptor in the cells and assay. Relevant particulars of the assay are outlined in the table below.
as §2

NK1 receptors [4] = target: T2, NK1 receptors; experiment: NK1 receptor binding assay (agonist radioligand, scintillation counting); parameters: that is endogenously expressing human NK1 receptors; endogenous in cells; host or cells: U373 MG human astrocytoma cells (membrane preparations); conditions: NK1(h) (agonist radioligand); Hill coefficient of competition curve
Source text: A scatchard plot is used todetermine the KD.

antagonistic activities (Human NK3 receptor [1]) | binding affinities (Human NK3 receptor [2]) | antagonistic activities (NK1 receptors [3]) | nH (Human NK3 receptor [2]) | nH (NK1 receptors [4]) | Compound
significant | significant | significant | – | – | Cc1cc(F)ccc1-c1cc(N2C[C@H]3COCC[N+]3([O-])C[C@H]2CO)ncc1N(C)C(=O)C(C)(C)c1cc(C(F)(F)F)cc(C(F)(F)F)c1 (stereo partly drawn) [compound of formula (II), N-[6-[(7S,9aS)-7-(hydroxymethyl)-5-oxido-3,4,6,7,9,9a-hexahydro-1H-pyrazino[2,1-c][1,4]oxazin-5-ium-8-yl]-4-(4-fluoro-2-methyl-phenyl)-3-pyridyl]-2-[3,5-bis(trifluoromethyl)phenyl]-N,2-dimethyl-propanamide]
significant | significant | significant | 1 | 1 | CC1CN2C[C@@H](CO)N(c3cc(-c4ccc(F)cc4CO)c(N(C)C(=O)C(C)(C)c4cc(C(F)(F)F)cc(C(F)(F)F)c4)cn3)C[C@H]2CO1 (stereo partly drawn) [compound of formula (III), 2-[3,5-bis(trifluoromethyl)phenyl]-N-{4-[4-fluoro-2-(hydroxymethyl)phenyl]-6-[(7S,9aS)-7-(hydroxymethyl)-3-methylhexahydropyrazino[2,1-c][1,4]oxazin-8(1H)-yl]pyridin-3-yl}-N,2-dimethylpropanamide]
significant | significant | significant | 1.3 | 1.2 | Cc1cc(F)ccc1-c1cc(N2C[C@H]3COC(C)CN3C[C@H]2CO)ncc1N(C)C(=O)C(C)(C)c1cc(C(F)(F)F)cc(C(F)(F)F)c1 (stereo partly drawn) [compound of formula (IV), 2-[3,5-bis(trifluoromethyl)phenyl]-N-{4-(4-fluoro-2-methylphenyl)-6-[(7S,9aS)-7-(hydroxymethyl)-3-methylhexahydropyrazino[2,1-c][1,4]oxazin-8(1H)-yl]pyridin-3-yl}-N,2-dimethylpropanamide]
significant | significant | significant | – | – | CN(C(=O)C(C)(C)c1cc(C(F)(F)F)cc(C(F)(F)F)c1)c1cnc(N2C[C@H]3COCCN3C[C@H]2CO)cc1-c1ccc(F)cc1CO [compound of formula (V), 2-[3,5-bis(trifluoromethyl)phenyl]-N-{4-[4-fluoro-2-(hydroxymethyl)phenyl]-6-[(7S,9aS)-7-(hydroxymethyl)hexahydropyrazino[2,1-c][1,4]oxazin-8(1H)-yl]pyridin-3-yl}-N,2-dimethylpropanamide]
